# Source: US11999727B2 (Tango Therapeutics, Inc., priority 2020, dated 2024)
# Columns and labels:
# [1] = tested on: HAP1 MTAP-intact cell line; assay: SDMA in-cell western assay, HAP1 MTAP-intact; assay type: cell-based; conditions: Homo sapiens, HAP1, SDMA in-cell western, HAP1 MTAP-intact; read-out: MTAP HAP1 intact IC50
# Outline: (§1)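 Isogenic HAP1 pair: the MTAP-intact line expresses endogenous MTAP, and the deleted line is MTAP-null. Symmetric dimethylarginine was detected by in-cell western and IC50 values derived for each line.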
# PRMT5 [2] = target: T1, PRMT5 (Homo sapiens, UniProt O14744); assay: PRMT5 biochemical IC50 assay with no cofactor; conditions: PRMT5, no cofactor; read-out: No Cofactor/rel IC50
# T1 construct: purchased Viva (custom protein)
# Source text: Table 1 indicates IC50 values (μM) against PRMT5 for exemplary compounds in the presence of SAM as cofactor, with no cofactor, and with MTA as cofactor, respectively (columns 4-6). […] Ki values can be calculated from the IC50 values as described in the Examples section. As detailed in the Examples section, for the assay performed in the presence of SAM, IC50=Ki×1.5 (Ki=IC50/1.5).
# PRMT5 [3] = target: T1, PRMT5; assay: PRMT5 biochemical IC50 assay with MTA as cofactor; conditions: PRMT5, MTA as cofactor; read-out: MTA IC50
# PRMT5 [4] = target: T1, PRMT5; assay: PRMT5 biochemical IC50 assay with SAM as cofactor; conditions: PRMT5, SAM as cofactor; read-out: SAM IC50
# [5] = tested on: HAP1 MTAP-deleted cell line; assay: Viability assay, MTAP-deleted cell line; assay type: cell-based; conditions: Homo sapiens, HAP1, viability assay, MTAP-deleted cell line; read-out: HAP1 MTAP deleted viability
# Source text: Table 1 additionally indicates IC50 values in a viability assay for the MTAP-deleted cell line (column 10), indicating the effect of treatment with compound on cell survival.
# [6] = tested on: HAP1 MTAP-deleted cell line; assay: SDMA in-cell western assay, HAP1 MTAP-deleted; assay type: cell-based; conditions: for IC50: Homo sapiens, HAP1, SDMA in-cell western, HAP1 MTAP-deleted, read-out: HAP1 MTAP deleted IC50; for MTAP intact/deleted ratio: IC50 ratio HAP1 MTAP-intact / HAP1 MTAP-deleted, SDMA in-cell western
# Outline: as §1
# T1 sequence (O14744 whole entry): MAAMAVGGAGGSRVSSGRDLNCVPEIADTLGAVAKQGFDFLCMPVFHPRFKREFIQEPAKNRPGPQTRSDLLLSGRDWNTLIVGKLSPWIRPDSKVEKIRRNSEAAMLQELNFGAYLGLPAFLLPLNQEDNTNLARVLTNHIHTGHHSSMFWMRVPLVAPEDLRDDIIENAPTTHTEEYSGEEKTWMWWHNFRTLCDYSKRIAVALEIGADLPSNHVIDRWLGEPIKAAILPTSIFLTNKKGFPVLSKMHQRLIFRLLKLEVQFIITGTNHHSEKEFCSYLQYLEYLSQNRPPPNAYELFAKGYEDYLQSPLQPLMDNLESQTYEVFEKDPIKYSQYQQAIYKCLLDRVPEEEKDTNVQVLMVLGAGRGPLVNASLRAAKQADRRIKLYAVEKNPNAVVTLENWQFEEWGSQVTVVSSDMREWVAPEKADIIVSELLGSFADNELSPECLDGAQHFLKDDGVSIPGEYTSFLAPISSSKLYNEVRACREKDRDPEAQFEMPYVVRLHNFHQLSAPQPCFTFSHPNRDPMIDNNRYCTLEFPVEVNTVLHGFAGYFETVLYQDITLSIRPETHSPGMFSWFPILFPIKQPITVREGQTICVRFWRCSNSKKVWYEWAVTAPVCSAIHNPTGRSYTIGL
# T1 sequence (Q9BQA1 whole entry partner): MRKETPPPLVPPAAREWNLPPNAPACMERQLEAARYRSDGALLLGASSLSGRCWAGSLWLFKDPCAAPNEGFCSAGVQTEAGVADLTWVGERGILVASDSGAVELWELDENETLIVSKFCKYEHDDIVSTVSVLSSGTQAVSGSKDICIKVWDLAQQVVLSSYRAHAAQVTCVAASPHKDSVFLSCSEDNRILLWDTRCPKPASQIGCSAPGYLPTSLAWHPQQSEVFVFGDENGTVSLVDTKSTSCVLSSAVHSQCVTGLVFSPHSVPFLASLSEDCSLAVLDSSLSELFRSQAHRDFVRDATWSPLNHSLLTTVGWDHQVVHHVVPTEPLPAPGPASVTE
Structure (SMILES),IC50 [1] [nM],IC50 (PRMT5 [2]) [nM],IC50 (PRMT5 [3]) [nM],IC50 (PRMT5 [4]) [nM],IC50 [6] [nM],IC50 [5] [nM],MTAP intact/deleted ratio [6]
"Cc1cc(NC(=O)C(=O)N2[C@H](C)CCC[C@@H]2c2ccccc2)cnc1N (single isomer, unassigned) [Compound 415]",100 to 1000,50 to 500,< 50,50 to 500,< 100,1000 to 10000,A (an IC50 ratio greater than or equal to 10 fold)
"Cc1cc(NC(=O)C(=O)N2[C@@H](C)CCC[C@H]2c2ccccc2)cnc1N (single isomer, unassigned) [Compound 417]",> 1000,> 500,50 to 500,50 to 500,100 to 1000,> 10000,B (an IC50 ratio greater than or equal to 3 fold but lower than 10 fold)
"Cc1c(NC(=O)C(=O)N2[C@@H](C)CCC[C@H]2c2ccccc2)cnc(N)c1C (single isomer, unassigned) [Compound 425]",> 1000,50 to 500,< 50,50 to 500,100 to 1000,1000 to 10000,A (an IC50 ratio greater than or equal to 10 fold)
"Cc1cc(NC(=O)C(=O)N2C[C@H](C)CC[C@H]2[C@H]2CC[C@H](O)CC2)cnc1N (single isomer, unassigned) [Compound 431]",> 1000,50 to 500,< 50,50 to 500,< 100,1000 to 10000,A (an IC50 ratio greater than or equal to 10 fold)
"C[C@H]1CC[C@H](c2ccccc2)N(C(=O)C(=O)Nc2cncc(C(N)=O)c2)[C@H]1C (single isomer, unassigned) [Compound 433]",> 1000,> 500,< 50,50 to 500,< 100,> 10000,A (an IC50 ratio greater than or equal to 10 fold)
"Cc1cc(NC(=O)C(=O)N2C[C@H](C)CC[C@H]2[C@H]2CC[C@@H](O)CC2)cnc1N (single isomer, unassigned) [Compound 436]",> 1000,50 to 500,50 to 500,50 to 500,100 to 1000,> 10000,A (an IC50 ratio greater than or equal to 10 fold)
"C[C@@H]1CC[C@@H](c2ccc(NCC(=O)N(C)C)cc2)N(C(=O)C(=O)Nc2cncc(C(N)=O)c2)C1 (single isomer, unassigned) [Compound 437]",> 1000,50 to 500,< 50,50 to 500,< 100,1000 to 10000,A (an IC50 ratio greater than or equal to 10 fold)
"Cc1c(NC(=O)C(=O)N2[C@H](C)CCC[C@@H]2c2ccccc2)cnc(N)c1C (single isomer, unassigned) [Compound 439]",> 1000,50 to 500,< 50,50 to 500,< 100,1000 to 10000,A (an IC50 ratio greater than or equal to 10 fold)
"C[C@@H]1CC[C@@H](c2ccc(NCC(F)(F)F)cc2)N(C(=O)C(=O)Nc2cncc(C(N)=O)c2)C1 (single isomer, unassigned) [Compound 455]",> 1000,50 to 500,< 50,50 to 500,100 to 1000,1000 to 10000,A (an IC50 ratio greater than or equal to 10 fold)
"C[C@H]1CN(C(=O)C(=O)Nc2cncc(C(N)=O)c2)[C@H](c2ccccc2)CC1(F)F (single isomer, unassigned) [Compound 457]",> 1000,50 to 500,< 50,50 to 500,< 100,< 1000,A (an IC50 ratio greater than or equal to 10 fold)

# Second part, led by results:
IC50 [1] [nM],IC50 (PRMT5 [2]) [nM],IC50 (PRMT5 [3]) [nM],IC50 (PRMT5 [4]) [nM],IC50 [6] [nM],Structure (SMILES),IC50 [5] [nM],MTAP intact/deleted ratio [6]
> 1000,50 to 500,< 50,50 to 500,< 100,"C[C@@H]1CC[C@@H](c2ccc3c(c2)CCCN3)N(C(=O)C(=O)Nc2cncc(C(N)=O)c2)C1 (single isomer, unassigned) [Compound 432]",1000 to 10000,A (an IC50 ratio greater than or equal to 10 fold)
> 1000,50 to 500,< 50,50 to 500,< 100,"C[C@H]1CC[C@H](c2cccc(Cl)c2)N(C(=O)C(=O)Nc2cncc(C(N)=O)c2)C1 (single isomer, unassigned) [Compound 440]",1000 to 10000,A (an IC50 ratio greater than or equal to 10 fold)
> 1000,< 50,< 50,50 to 500,< 100,"CNc1ccc([C@@H]2CC[C@@H](C)CN2C(=O)C(=O)Nc2cncc(C(N)=O)c2)cn1 (single isomer, unassigned) [Compound 443]",< 1000,A (an IC50 ratio greater than or equal to 10 fold)
> 1000,50 to 500,< 50,50 to 500,< 100,"COc1ncc(NC(=O)C(=O)N2C[C@H](C)CC[C@H]2c2ccc(F)cc2)cc1C(N)=O (single isomer, unassigned) [Compound 446]",1000 to 10000,A (an IC50 ratio greater than or equal to 10 fold)
> 1000,< 50,< 50,50 to 500,< 100,"CNc1ccc([C@H]2CC[C@H](C)CN2C(=O)C(=O)Nc2cnc(OC)c(C(N)=O)c2)cn1 (single isomer, unassigned) [Compound 447]",< 1000,A (an IC50 ratio greater than or equal to 10 fold)
> 1000,> 500,> 500,> 500,> 1000,"CNc1ccc([C@@H]2CC[C@@H](C)CN2C(=O)C(=O)Nc2cnc(OC)c(C(N)=O)c2)cn1 (single isomer, unassigned) [Compound 448]",> 10000,C (an IC50 ratio of less than 3 fold)
100 to 1000,50 to 500,< 50,50 to 500,< 100,"CNc1cccc([C@@H]2CC[C@@H](C)CN2C(=O)C(=O)Nc2cnc(N)c(C)c2)c1 (single isomer, unassigned) [Compound 449]",< 1000,A (an IC50 ratio greater than or equal to 10 fold)
> 1000,50 to 500,< 50,50 to 500,< 100,"CC(=O)Nc1ccc([C@@H]2CC[C@@H](C)CN2C(=O)C(=O)Nc2cncc(C(N)=O)c2)cc1 (single isomer, unassigned) [Compound 451]",1000 to 10000,A (an IC50 ratio greater than or equal to 10 fold)
> 1000,> 500,> 500,> 500,> 1000,"COc1ncc(NC(=O)C(=O)N2C[C@H](C)CC[C@H]2c2ccc3c(c2)CC(=O)N3)cc1C(N)=O (single isomer, unassigned) [Compound 453]",> 10000,C (an IC50 ratio of less than 3 fold)
100 to 1000,< 50,< 50,50 to 500,< 100,"COc1ncc(NC(=O)C(=O)N2C[C@@H](C)CC[C@@H]2c2ccc3c(c2)CC(=O)N3)cc1C(N)=O (single isomer, unassigned) [Compound 454]",< 1000,A (an IC50 ratio greater than or equal to 10 fold)
100 to 1000,< 50,< 50,50 to 500,< 100,"Cc1cc(NC(=O)C(=O)N2C[C@H](C)CC[C@H]2c2ccc(F)c(F)c2)cnc1N (single isomer, unassigned) [Compound 458]",1000 to 10000,A (an IC50 ratio greater than or equal to 10 fold)
> 1000,< 50,< 50,50 to 500,< 100,"COc1ncc(NC(=O)C(=O)N2C[C@@H](C)CC[C@@H]2c2ccc(N)nc2)cc1C(N)=O (single isomer, unassigned) [Compound 460]",< 1000,A (an IC50 ratio greater than or equal to 10 fold)
100 to 1000,< 50,< 50,50 to 500,< 100,"Cc1cc(NC(=O)C(=O)N2C[C@H](C)CC[C@H]2c2ccc(N)cc2)cnc1N (single isomer, unassigned) [Compound 461]",< 1000,B (an IC50 ratio greater than or equal to 3 fold but lower than 10 fold)
